Test results from patent publication US20080032985A1, “4-Substituted Quinoline Derivatives, Method and Intermediates for Their Preparation and Pharmaceutical Compositions Containing Them” (priority 2004, published 2008).
Converted amounts (≈) assume the structure as drawn.

Columns and labels:
[1] = system: E. faecalis ATCC S343211 vancomycin resistant; test: MIC by dilutions in agar medium (NCCLS), Gram-positive; assay type: cell-based; settings: Enterococcus faecalis; at 24 hours; agar dilution
Description: (§1) The method of dilutions in agar medium in agreement with the NCCLS recommendations is used for the determination of the minimum inhibitory concentrations (MIC) expressed in mg/l.
(§2) The activities of the compounds of examples 5, 8, 10-13 are grouped together in the following table: […]

[2] = system: S. aureus AS 5155 methicillin resistant; test: as above; assay type: cell-based; settings: Staphylococcus aureus; at 24 hours; agar dilution
Description: as §1, §2

[3] = system: S. aureus IP8203 sensitive; test: as above; assay type: cell-based; settings: Staphylococcus aureus; at 24 hours; agar dilution
Description: as §1, §2

[4] = system: S. pneumoniae 6254-01 MLSB resistant; test: as above; assay type: cell-based; settings: Streptococcus pneumoniae; at 24 hours; agar dilution
Description: as §1, §2

[5] = system: H. influenzae MDK 1528 sensitive; test: MIC by dilutions in agar medium (NCCLS), Gram-negative; assay type: cell-based; settings: Haemophilus influenzae; at 48 hours; agar dilution
Description: as §1, §2

[6] = system: M. catarrhalis IPA151 sensitive; test: as above; assay type: cell-based; settings: Moraxella catarrhalis, IPA151SENSITIVE; at 48 hours; agar dilution
Description: as §1, §2

| Compound | MIC [1] | MIC [2] | MIC [3] | MIC [4] | MIC [5] | MIC [6] | melting point |
| --- | --- | --- | --- | --- | --- | --- | --- |
| COc1ccc2ncc(F)c(CCCC(CNC/C=C/c3cc(F)ccc3F)C(=O)O)c2c1 (racemic) [Example 5, (RS)-2-{[(E)-3-(2,5-difluorophenyl)allylamino]methyl}-5-(3-fluoro-6-methoxyquinolin-4-yl)pentanoic acid] | 0.25 to 1 mg/L (≈ 0.545 to 2.18 µM) | 0.12 to 1 mg/L (≈ 0.262 to 2.18 µM) | 0.12 to 1 mg/L (≈ 0.262 to 2.18 µM) | 0.25 to 0.5 mg/L (≈ 0.545 to 1.09 µM) | 2 to 8 mg/L (≈ 4.36 to 17.4 µM) | 0.5 to 4 mg/L (≈ 1.09 to 8.72 µM) |  |
| COc1ccc2ncc(F)c(CCCC(CNCCCc3cc(F)ccc3F)C(=O)O)c2c1 (racemic) [Example 8, (RS)-2-{[3-(2,5-difluorophenyl)propylamino]methyl}-5-(3-fluoro-6-methoxyquinolin-4-yl)pentanoic acid] | 0.25 to 1 mg/L (≈ 0.543 to 2.17 µM) | 0.12 to 1 mg/L (≈ 0.261 to 2.17 µM) | 0.12 to 1 mg/L (≈ 0.261 to 2.17 µM) | 0.25 to 0.5 mg/L (≈ 0.543 to 1.09 µM) | 2 to 8 mg/L (≈ 4.34 to 17.4 µM) | 0.5 to 4 mg/L (≈ 1.09 to 8.69 µM) |  |
| COc1ccc2ncc(F)c(CCCC(CN(C)C/C=C/c3cc(F)ccc3F)C(=O)[O-])c2c1.[Na+] (racemic) [Example 10, Sodium (RS)-2-({N-[(E)-3-(2,5-difluorophenyl)allyl]-N-methylamino}methyl)-5-(3-fluoro-6-methoxyquinolin-4-yl)pentanoate] | 0.25 to 1 mg/L | 0.12 to 1 mg/L | 0.12 to 1 mg/L | 0.25 to 0.5 mg/L | 2 to 8 mg/L | 0.5 to 4 mg/L |  |
| COc1ccc2ncc(F)c(CCCC(CNCCSc3cccs3)C(=O)O)c2c1 (racemic) [Example 11, (RS)-5-(3-Fluoro-6-methoxyquinolin-4-yl)-2-{[2-(thiophen-2-ylsulfanyl)ethylamino]methyl}pentanoic acid] | 0.25 to 1 mg/L (≈ 0.557 to 2.23 µM) | 0.12 to 1 mg/L (≈ 0.268 to 2.23 µM) | 0.12 to 1 mg/L (≈ 0.268 to 2.23 µM) | 0.25 to 0.5 mg/L (≈ 0.557 to 1.11 µM) | 2 to 8 mg/L (≈ 4.46 to 17.8 µM) | 0.5 to 4 mg/L (≈ 1.11 to 8.92 µM) |  |
| COc1ccc2ncc(F)c(CCCC(CNCCSc3cc(F)ccc3F)C(=O)O)c2c1 (racemic) [Example 12, (RS)-2-{[2-(2,5-Difluorophenylsulfanyl)ethylamino]-methyl}-5-(3-fluoro-6-methoxyquinolin-4-yl)pentanoic acid] | 0.25 to 1 mg/L (≈ 0.522 to 2.09 µM) | 0.12 to 1 mg/L (≈ 0.251 to 2.09 µM) | 0.12 to 1 mg/L (≈ 0.251 to 2.09 µM) | 0.25 to 0.5 mg/L (≈ 0.522 to 1.04 µM) | 2 to 8 mg/L (≈ 4.18 to 16.7 µM) | 0.5 to 4 mg/L (≈ 1.04 to 8.36 µM) |  |
| COc1ccc2ncc(F)c(CCCC(CNCCOc3cc(F)ccc3F)C(=O)O)c2c1 (racemic) [Example 13, (RS)-2-{[2-(2,5-Difluorophenoxy)ethylamino]methyl}-5-(3-fluoro-6-methoxyquinolin-4-yl)pentanoic acid] | 0.25 to 1 mg/L (≈ 0.541 to 2.16 µM) | 0.12 to 1 mg/L (≈ 0.259 to 2.16 µM) | 0.12 to 1 mg/L (≈ 0.259 to 2.16 µM) | 0.25 to 0.5 mg/L (≈ 0.541 to 1.08 µM) | 2 to 8 mg/L (≈ 4.32 to 17.3 µM) | 0.5 to 4 mg/L (≈ 1.08 to 8.65 µM) |  |
| COc1ccc2ncc(F)c(CCCC(CN(C/C=C/c3cc(F)ccc3F)CCF)C(=O)O)c2c1 (racemic) [Example 14, (RS)-2-{[N-[(E)-3-(2,5-difluorophenyl)allyl]-N-(2-fluoroethyl)amino]methyl}-5-(3-fluoro-6-methoxy-quinolin-4-yl)pentanoic acid] |  |  |  |  |  |  | 120 °C |
| COc1ccc2ncc(F)c(CCCC(CNC/C=C/c3cc(F)ccc3F)C(=O)O)c2c1 (single isomer, unassigned) [Example 6, 2-{[(E)-3-(2,5-difluorophenyl)allylamino]methyl}-5-(3-fluoro-6-methoxyquinolin-4-yl)pentanoic acid] |  |  |  |  |  |  | 168 °C |
| COc1ccc2ncc(F)c(CCCC(CNC/C=C/c3cc(F)ccc3F)C(=O)O)c2c1 (single isomer, unassigned) [Example 7, 2-{[(E)-3-(2,5-difluorophenyl)allylamino]methyl}-5-(3-fluoro-6-methoxyquinolin-4-yl)pentanoic acid] |  |  |  |  |  |  | 166 °C |
